The test system of one data set is Huh-7. Nature of the data set: NOVARTIS: Cytotoxicity against human hepatocellular carcinoma cell line (Huh7). The data set is classed as toxicity, cell-based.
In data set [1] the test system is Plasmodium falciparum. As to the kind of experiment: NOVARTIS: Inhibition of Plasmodium falciparum 3D7 (drug-susceptible) proliferation in erythrocyte-based infection assay. The data set is classed as functional, organism-based.
Data set [2] has as its system Plasmodium falciparum. Nature of the data set: NOVARTIS: Inhibition of Plasmodium falciparum W2 (drug-resistant) proliferation in erythrocyte-based infection assay. The data set is classed as functional, organism-based. The conditions noted are these: read-out: EC50.

By CC50 is commonly meant the concentration giving 50% cytotoxicity. The EC50 is the concentration that produces a half-maximal response.

SMILES strings stand for the structures. “And” between values parts separate entries of the source, which are not always exact repeats. Identical values can stand only once.

`CC[n+]1c(C=CN(C)C)sc2ccccc21`: in the data set on Huh-7 (huh-7, read-out: CC50), the CC50 came out at 27100 nM. The EC50 in the data set with Plasmodium falciparum [1] (Plasmodium falciparum, 3D7) came out at 459 nM; in the data set on Plasmodium falciparum [2] it was 1360 nM.
Turning to `CN(C)c1ccc(C=CC=Cc2cccc[n+]2C)cc1`, the CC50 with Huh-7 (huh-7, read-out: CC50) is above 10000 nM. In addition, the concentration for a half-maximal effect (EC50) in the data set on Plasmodium falciparum [1] (Plasmodium falciparum, 3D7) was 108 nM; in the data set with Plasmodium falciparum [2] (Plasmodium falciparum, W2), below 8.47 nM.
In the case of `COc1cc(/C=C2/SC(=Nc3ccccc3)NC2=O)ccc1OCc1ccccc1Cl`, in the data set on Huh-7 (huh-7, read-out: CC50), the 50% cytotoxic concentration (CC50) is above 100000 nM. The EC50 in the data set with Plasmodium falciparum [1] is 692 nM; in the data set on Plasmodium falciparum [1] (Plasmodium falciparum, 3D7) it was 957 nM; with Plasmodium falciparum [2] (Plasmodium falciparum, W2), 494 nM; in the data set on Plasmodium falciparum [2], 522 nM.
Turning to `CC[n+]1c(/C=C/N2CCCc3ccccc32)ccc2ccccc21`, the 50% cytotoxic concentration (CC50) in the data set with Huh-7 (huh-7, read-out: CC50) was found to be 2340 nM. Moreover, the EC50 was found to be 75.7 nM in the data set with Plasmodium falciparum [1] (Plasmodium falciparum, 3D7) and 145 nM in the data set with Plasmodium falciparum [2] (Plasmodium falciparum, W2).
In the case of `CCN1C(=Cc2sc3ccc(OC)cc3[n+]2CC)C=Cc2ccccc21`, in the data set on Huh-7 (huh-7, read-out: CC50), the CC50 turned out to be 24800 nM. The concentration giving a half-maximal response (EC50) in the data set with Plasmodium falciparum [1] worked out at 20.4 nM; with Plasmodium falciparum [2] it was 208 nM.
On to `CCN1C(=Cc2ccc3ccccc3[n+]2CC)C=Cc2sc3ccccc3c21`, for which the 50% cytotoxic concentration (CC50) with Huh-7 (huh-7, read-out: CC50) was 2970 nM and 27800 nM. Also, the concentration for a half-maximal effect (EC50) in the data set with Plasmodium falciparum [1] is 188 nM and 50.9 nM; with Plasmodium falciparum [2], 44 nM and 148 nM.
In the case of `Cc1occc1C(=O)NN=C/C(Cl)=C/c1ccccc1`, the half-maximal cytotoxic concentration (CC50) with Huh-7 (huh-7, read-out: CC50) was > 10000 nM and 64300 nM. Also, the EC50 in the data set on Plasmodium falciparum [1] was 291 nM; in the data set on Plasmodium falciparum [1] (Plasmodium falciparum, 3D7), 255 nM; in the data set with Plasmodium falciparum [2], 116 nM and 392 nM.
In the case of `C[n+]1ccc(C=Cc2ccc(O)cc2)cc1`, the CC50 with Huh-7 (huh-7, read-out: CC50) is above 100000 nM. For the same molecule, the concentration for a half-maximal effect (EC50) in the data set on Plasmodium falciparum [1] was found to be 1430 nM; in the data set on Plasmodium falciparum [2], 593 nM.
For `C=CCN1C=CC(=Cc2sc3ccccc3[n+]2C)c2ccccc21`, in that order: 14200 nM, 89.7 nM and 115 nM.
For `CCN1C(=Cc2sc3cc(NC(C)=O)ccc3[n+]2CC)C=Cc2cc(C)ccc21`, in that order: above 90600 nM, 161 nM and 581 nM.
Regarding `C=CCN1C(=O)/C(=C2/Sc3ccc(OC)cc3N2C)SC1=Nc1ccccc1-c1ccccc1`, the 50% cytotoxic concentration (CC50) in the data set with Huh-7 (huh-7, read-out: CC50) is above 100000 nM. Also, the EC50 in the data set on Plasmodium falciparum [1] came out at 2120 nM; in the data set on Plasmodium falciparum [1] (Plasmodium falciparum, 3D7) it was 1180 nM; with Plasmodium falciparum [2] (Plasmodium falciparum, W2) it was 488 nM; in the data set with Plasmodium falciparum [2], 838 nM.
With `CCn1c(C=CN(C(C)=O)c2ccccc2)[n+](CC)c2cc(Cl)ccc21`, in the data set with Huh-7 (huh-7, read-out: CC50), the half-maximal cytotoxic concentration (CC50) was above 10000 nM. In addition, the EC50 was above 1650 nM with Plasmodium falciparum [1] (Plasmodium falciparum, 3D7) and above 1060 nM in the data set on Plasmodium falciparum [2] (Plasmodium falciparum, W2).
Regarding `O=C(NCCc1ccccc1)C1CCC(Cn2c(=S)[nH]c3ccccc3c2=O)CC1` (stereo unspecified), in the data set with Huh-7 (huh-7), the 50% cytotoxic concentration (CC50) result is on record as “No fit”. Besides, the half-maximal effective concentration (EC50) in the data set with Plasmodium falciparum [1] (Plasmodium falciparum, 3D7) was above 1650 nM; with Plasmodium falciparum [2] (Plasmodium falciparum, W2), 1750 nM.
Take `CC[n+]1c(C=CN(C)c2ccccc2)sc2ccc(Cl)cc21`: the CC50 in the data set on Huh-7 (huh-7, read-out: CC50) was > 10000 nM and 23000 nM. Besides, the EC50 in the data set with Plasmodium falciparum [1] amounted to 223 nM; in the data set on Plasmodium falciparum [1] (Plasmodium falciparum, 3D7) it was 156 nM; in the data set with Plasmodium falciparum [2] (Plasmodium falciparum, W2), 352 nM; with Plasmodium falciparum [2], 367 nM.
With `CN1/C(=C/c2cccc[n+]2C)Sc2ccccc21`, in the data set on Huh-7 (huh-7, read-out: CC50), the CC50 was above 100000 nM. Moreover, the EC50 with Plasmodium falciparum [1] came to 230 nM; in the data set on Plasmodium falciparum [1] (Plasmodium falciparum, 3D7), 138 nM; with Plasmodium falciparum [2] (Plasmodium falciparum, W2), 223 nM; in the data set with Plasmodium falciparum [2], 293 nM.
For the molecule `CC[n+]1c(C=CC=C2N(C)c3ccccc3C2(C)C)sc2ccccc21`, in the data set on Huh-7 (huh-7, read-out: CC50), the CC50 is above 10000 nM. The EC50 worked out at 629 nM in the data set on Plasmodium falciparum [1] (Plasmodium falciparum, 3D7) and 520 nM with Plasmodium falciparum [2] (Plasmodium falciparum, W2).
On to `OCC[n+]1ccc(/C=C/c2c[nH]c3ccccc23)cc1`, for which the CC50 in the data set with Huh-7 (huh-7, read-out: CC50) was above 100000 nM. For the same molecule, the EC50 with Plasmodium falciparum [1] stood at 343 nM; with Plasmodium falciparum [1] (Plasmodium falciparum, 3D7), 390 nM; in the data set on Plasmodium falciparum [2] (Plasmodium falciparum, W2), 554 nM; with Plasmodium falciparum [2], 396 nM.
As to `C[n+]1c2ccccc2nc2ccc(NCCc3cnc[nH]3)cc21`, in the data set with Huh-7 (huh-7), the 50% cytotoxic concentration (CC50) entry was “No fit”. Moreover, the EC50 with Plasmodium falciparum [1] (Plasmodium falciparum, 3D7) came out at 139 nM; with Plasmodium falciparum [2] (Plasmodium falciparum, W2), 405 nM.
On to `CCN(CC)c1ccc(C=Cc2cccc[n+]2CC)cc1`, for which the 50% cytotoxic concentration (CC50) in the data set with Huh-7 (huh-7, read-out: CC50) came out at 44900 nM. Also, the concentration for a half-maximal effect (EC50) with Plasmodium falciparum [1] was 88.5 nM; with Plasmodium falciparum [2], 131 nM.
With `COc1ccc(/C=C2\SC(=O)NC2=Nc2ccccc2)cc1`, the cytotoxic concentration (CC50) in the data set on Huh-7 (huh-7, read-out: CC50) is above 100000 nM. In addition, the concentration for a half-maximal effect (EC50) with Plasmodium falciparum [1] (Plasmodium falciparum, 3D7) was 819 nM; in the data set on Plasmodium falciparum [2], 1300 nM and 378 nM.
As for `CCN1/C(=C/c2ccc3cc(OC)ccc3[n+]2CC)Sc2ccc(NC(C)=O)cc21`, the CC50 in the data set on Huh-7 (huh-7, read-out: CC50) is above 52000 nM. Besides, the EC50 is 31.1 nM and 113 nM with Plasmodium falciparum [1]; 82.6 nM in the data set on Plasmodium falciparum [2] (Plasmodium falciparum, W2); 119 nM with Plasmodium falciparum [2].
Turning to `CCN1/C(=C/c2cccc[n+]2C)Sc2ccc(OC)cc21`, the CC50 in the data set on Huh-7 (huh-7, read-out: CC50) was above 100000 nM. Besides, the EC50 was 207 nM in the data set on Plasmodium falciparum [1] (Plasmodium falciparum, 3D7); > 867 nM and 304 nM in the data set on Plasmodium falciparum [2].
In the case of `CCN1C(=Cc2sc3ccc(Cl)cc3[n+]2CC)C=Cc2cc(OC)ccc21`, the CC50 in the data set on Huh-7 (huh-7, read-out: CC50) is 11900 nM. The concentration giving a half-maximal response (EC50) came to 16.7 nM in the data set on Plasmodium falciparum [1] and 91.8 nM in the data set on Plasmodium falciparum [2].
On the same counts, the results for `C[n+]1ccccc1C=Cc1cc(Br)ccc1O` are above 100000 nM, 466 nM and 308 nM.
Take `CC[n+]1c(C=CC=C2N(C)c3ccccc3C2(C)C)sc2ccccc21.[O-][Cl+3]([O-])([O-])[O-]`: the CC50 in the data set with Huh-7 (huh-7, read-out: CC50) is 1630 nM. The EC50 with Plasmodium falciparum [1] (Plasmodium falciparum, 3D7) was determined as 149 nM; in the data set on Plasmodium falciparum [2] (Plasmodium falciparum, W2), 177 nM.
In the case of `CCN(CC)C1SC=C(c2ccc([N+](=O)[O-])cc2)S1` (stereo unspecified), the cytotoxic concentration (CC50) with Huh-7 (huh-7, read-out: CC50) is above 96000 nM. The EC50 in the data set with Plasmodium falciparum [1] is 549 nM; with Plasmodium falciparum [1] (Plasmodium falciparum, 3D7), 446 nM; in the data set on Plasmodium falciparum [2] it was 911 nM and 390 nM.

For the origin of these results see ChEMBL document CHEMBL1156829 (Proc Natl Acad Sci U S A, 2008).
